Results on 80 compounds are retold here after the METLIN SMRT retention time set (Domingo-Almenara et al. 2019).

The structures appear in SMILES notation.

This series can be described thus: gradient 5% acetonitrile 3 min, to 50% in 2 min, to 85% in 15 min, held 3 min, 100 µL/min. The settings on record: column: Zorbax Extend-C18 2.1 x 50 mm; eluents: water / acetonitrile, 0.1% formic acid. An outline of the steps: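 In both positive and negative ionization mode, a quadrupole time-of-flight mass spectrometer coupled to HPLC analyzed pure standards run in mixtures of ~100 molecules. The Zorbax Extend-C18 column (2.1 × 50 mm, 1.8 μm) was operated at 100 μL/min with water and acetonitrile, each containing 0.1% formic acid. The dead volume was 40 μL and the dwell volume 900 μL. Retention time came from adduct peaks that were computationally picked and individually inspected by hand.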
The compound `CCc1cc(C(=O)Nc2cc(Cl)ccc2OC)nc2ccnn12` showed an RP-LC retention time of 1210 s.
As for `Cc1ccc(-c2cc(N3CCN(C(=O)c4cc(C)cc(C)c4)CC3)ncn2)cc1`, the figure is 731 s; as for `O=C(Cc1csc2nc(-c3ccccc3)cn12)N1CCN(c2ccc(Cl)cc2)CC1`, 915 s.
As for `CCC(CC)C(=O)N1CCC(N2CCN(CC)C2=O)CC1`, the figure is 686 s; as for `O=C(NCC(O)c1ccsc1)C1(c2ccccc2)CCOCC1` (stereo not given), 667 s; as for `Cc1nn(CCCC(=O)N2CCN(c3ccccn3)CC2)c(=O)c2noc(C)c12`, 580 s.
As for `Cc1ccc(NS(=O)(=O)c2ccc(-c3c(C)noc3C)cc2)cc1F`, the figure is 964 s; as for `Cc1nnc(CNC(=O)c2cc(-c3cccs3)[nH]n2)o1`, 582 s; as for `CCOC(=O)c1c(C)[nH]c(C(=O)N2CCCC(C(=O)NCCN3CCOCC3)C2)c1C` (stereo not given), 593 s.
In turn, `Cn1cccc1C(=O)N1CCN(c2cc(-c3ccccc3)[nH]n2)CC1` yielded an RP-LC retention time of 747 s.
As for `O=C(c1cc(F)ccc1F)N1CCC2(CC1)N=C(c1ccc(Cl)cc1)NO2`, the figure is 902 s; as for `CN1CCN(c2c(C(=O)c3ccccc3)cnc3cc4c(cc23)OCO4)CC1`, 560 s.
For the compound `Cc1nc2cccnc2n1CCN1CCN(C(=O)Nc2ccc(F)c(Cl)c2)CC1`, the RP-LC retention time was determined as 618 s.
As for `Cc1csc(-c2ccc(N3CCN(C(=O)c4nn(C)c5ccccc45)CC3)nc2)n1`, the figure is 864 s; as for `Cc1ccc(C)c(N2CCN(c3ccnc(SCC(=O)Nc4ccc(F)cc4F)n3)CC2)c1`, 1000 s; as for `COCCCN1C(=O)CSc2c(c3ccccc3n2C)C1C(=O)NCCCOC(C)C` (stereo not given), 825 s.
On to `COCCN1C(=O)[C@H]2CN(Cc3ccc(C)cc3C)C[C@H]2C1=O`, for which the RP-LC retention time was 644 s.
In the case of `Cc1ccc(NC(=O)NCCn2c(C(F)(F)F)nc3cccnc32)cc1F` it was 786 s; in that of `CS(=O)(=O)N1C[C@@H](COc2ccncc2)[C@H](c2ccccn2)C1`, 542 s; in that of `O=C(NC(Cc1ccccc1)C(=O)N1CCN(c2ccccn2)CC1)c1cccc(Cl)c1` (stereo not given), 698 s.
In the case of `CCOc1cc(-c2ccc(C)cc2)nc2ccc(NC(=O)c3ccco3)cc12` it was 764 s; in that of `Cc1ccccc1C(=O)N1CCc2c(c(-c3nc(C4CC4)no3)nn2C)C1`, 801 s; in that of `COc1ccc(OC)c2sc(NC(=O)c3cc(C)on3)nc12`, 748 s.
Compound `CSc1ccc(-c2nc3ccc(Cl)cn3c2Nc2ccc(Cl)cc2)cc1` displayed an RP-LC retention time of 993 s.
`COc1ccc(NC(=O)C2CCN(C(=O)C3Sc4ccccc4NC3=O)CC2)cc1Cl` (stereo not given) showed an RP-LC retention time of 795 s.
In the case of `Cc1cnc(C(=O)NC2C[C@H]3CC[C@@H](C2)N3C(=O)c2sccc2C)cn1` (stereo not given in full) it was 663 s; in that of `O=C(Cn1nc2c(N3CCc4ccccc4C3)nccn2c1=O)Nc1ccccc1Cl`, 896 s; in that of `COc1cccc(CNC(=O)C2CCN(c3ccc(SCc4ccccc4)nn3)CC2)c1`, 758 s.
In the case of `Cc1noc(-c2ccc(=O)n(Cc3cccc(C(F)(F)F)c3)c2)n1` it was 806 s.
As for `CC(C)Cn1c(=O)c2cc(C(=O)Nc3ccc(N4CCOCC4)cc3)nn2c2ccccc21`, the figure is 953 s.
In turn, `Cc1ccc(-n2cccc2CC(=O)NC2CCCCC2)cc1` gave an RP-LC retention time of 1020 s.
As for `Cc1cnc(C2CN(Cc3cccnc3)C2)n1Cc1ccccc1`, the figure is 536 s.
In the case of `O=S(=O)(c1cccnc1)N1CC(c2nc(-c3ccncc3)no2)C1`, the RP-LC retention time is 663 s.
In the case of `CCOC(=O)C1C(=O)C(=O)N(C(C)C)C1C(=O)OCC` (stereo not given) it was 782 s; in that of `CCOc1ccccc1C(=O)Nc1c(C(=O)Nc2ccccc2F)oc2cccnc12`, 841 s.
Take `Cc1cccc(C(=O)N2CCN(c3c(C)n(C)c(=O)n(C)c3=O)CC2)c1`: the RP-LC retention time came to 726 s.
In the case of `c1ccc2oc(SCc3cn4ccsc4n3)nc2c1` it was 653 s; in that of `Fc1ccc(CN2CCC(Cc3nc(-c4cccnc4)n[nH]3)C2)c(F)c1` (stereo not given), 564 s.
`Cc1ccc2[nH]c(=O)c(CCC(=O)N3CCN(C4CCCCC4)CC3)cc2c1` displayed an RP-LC retention time of 619 s.
In the case of `Cc1cc(F)ccc1NC(=O)C1CCN(C(=O)C2Sc3ccccc3NC2=O)CC1` (stereo not given), the RP-LC retention time was 738 s.
In turn, `CC(C)c1nc(-c2ccc(OC3CCN(C(=O)Cc4c[nH]c5ccccc45)C3)cc2)no1` (stereo not given) returned an RP-LC retention time of 923 s.
As for `Cc1nc(-c2noc(-c3ccncc3)n2)cn1CC(=O)NCc1ccc(F)cc1`, the figure is 885 s; as for `CCOc1cc(Cl)c(S(=O)(=O)NCc2ccccn2)cc1Cl`, 715 s.
As for `Cc1c(-c2ccnc(N3CCN(Cc4ccccc4)CC3)n2)cnc2ncnn12`, the figure is 588 s; as for `CCOC(=O)c1cccc(NS(=O)(=O)c2cc(-c3cc(C)[nH]n3)ccc2C)c1`, 866 s.
In the case of `COc1ccccc1Nc1c(-c2ccc(C(=O)O)cc2)nc2cnccn12` it was 730 s; in that of `Cc1nccn1Cc1noc(-c2ccccc2Cl)n1`, 615 s; in that of `Cc1cc(C)cc(Nc2nc3ccncc3n(C(C)C)c2=O)c1`, 745 s.
The compound `Cc1nc(CC(=O)Nc2nc(-c3ccccc3)c(C)s2)cs1` yielded an RP-LC retention time of 894 s.
As for `O=C(c1cnn(-c2ccccc2)n1)N1CC(c2nc3ccccc3[nH]2)C1`, the figure is 578 s; as for `CCc1ccc(C(=O)N2CCCN(C3=NS(=O)(=O)C(c4ccccc4)=C3C)CC2)cc1`, 894 s; as for `CCOc1ccc(-c2cc3c(=O)n(Cc4nc(-c5ccc(C)c(C)c5)no4)ncn3n2)cc1`, 1260 s.
The compound `O=S(=O)(NCCC1=CCCCC1)c1ccccc1-c1nc(-c2cccc(F)c2)no1` returned an RP-LC retention time of 1400 s.
In turn, `CCCn1cnc2cc(-c3noc(C(C)NC(=O)c4ccco4)n3)ccc21` (stereo not given) came in with an RP-LC retention time of 629 s.
`Cc1ccccc1C(=O)CC1(O)C(=O)Nc2ccccc21` (stereo not given) registered an RP-LC retention time of 709 s.
In the case of `COc1ccc2c(c1)C1(CCN(C(=O)CCc3ccccc3)C1)C(=O)N2C` (stereo not given) it was 850 s; in that of `CC1CCN(C(=O)C2=CN(c3ccccc3)c3cc(Cl)ccc3S2(=O)=O)CC1`, 999 s.
`CN(C)CCNc1oc(-c2ccc(COc3ccccc3)o2)nc1C#N` displayed an RP-LC retention time of 684 s.
As for `CCCN(Cc1ccc(OC)cc1)Cc1cc(=O)n2cc(Cl)ccc2n1`, the figure is 654 s.
In the case of `O=C(NC1CCCCC1)C1CCCN(c2ccnc(-c3ccc(F)cc3)n2)C1` (stereo not given), the RP-LC retention time amounted to 695 s.
In turn, `Cc1ccc(C(C)NC(=O)c2cn3c(n2)CCCC3)c(C)c1` (stereo not given) yielded an RP-LC retention time of 642 s.
As for `CCn1c(=O)cc(OCC(=O)N2CCN(c3ccccn3)CC2)c2ccccc21`, the figure is 584 s; as for `O=C(NCc1ccc(F)cc1F)C1CCCN(c2nc3ccsc3c(=O)n2Cc2ccccc2)C1` (stereo not given), 938 s; as for `CNS(=O)(=O)c1ccc(Cl)c(-c2nnc(-c3ccc(OC)cc3)o2)c1`, 883 s.
In the case of `CCOCCCNC(=O)CC1CCN(c2ccnc(OC)n2)CC1` it was 574 s; in that of `COc1ccc(-c2nnc(COc3ccc(NC(=O)CNC(=O)Cc4ccccc4)cc3)o2)cc1`, 812 s; in that of `Nc1nc(-c2nn(Cc3ccccc3F)c3ncccc23)ncc1C1CC1`, 720 s.
In the case of `O=C(Nc1cccc(Cl)c1)c1c(O)c2cccnc2n(-c2ccc(F)cc2)c1=O` it was 1320 s; in that of `CN(CCc1noc(C2CN(C(=O)c3ccsc3)C2)n1)C(=O)C1CC1`, 647 s.
For the compound `CCC1CN2C=Nc3oc(C)c(C(=O)Nc4ccccc4OC)c3C2=N1` (stereo not given), the RP-LC retention time was determined as 668 s.
In the case of `CCOc1ccc(NC(=O)N2CCN(CCn3c(C(F)(F)F)nc4cccnc43)CC2)cc1` it was 649 s.
In the case of `COc1ccc(-c2nc(Nc3ccccn3)sc2C)cc1` it was 807 s; in that of `Cc1ccc(CNC(=O)C2CCN(c3cnc(N4CCCC4)nc3)CC2)cc1`, 680 s.
In the case of `Clc1ccc(-c2nc(-c3cccc(-c4ccn[nH]4)c3)no2)cc1` it was 1090 s.
`Cc1nnc2ccc(S(=O)(=O)N(Cc3ccccc3)c3cccc(F)c3)cn12` showed an RP-LC retention time of 866 s.
As for `CC(=O)Nc1cc2c(cc1SC(C)C)n(C)c(=O)n2C`, the figure is 705 s.
As for `CCN1C(=O)CN(C(=O)c2ccoc2)CC12CCOCC2`, the figure is 609 s; as for `CC(=O)c1cccc(NC(=O)N2CCN(Cc3ccccc3)c3ncccc32)c1`, 732 s.
As for `COC(=O)c1cc(C)nc2c1c(=O)n(Cc1nc(-c3ccccc3OC)oc1C)c(=O)n2C`, the figure is 971 s; as for `CCc1onc(C)c1C1CCCN1C(=O)Nc1ccccc1Cl` (stereo not given), 907 s.
